The text below walks through data of ChEMBL document CHEMBL3992543, “New quinolinic derivatives as melatonergic ligands: Synthesis and pharmacological evaluation” (Eur J Med Chem, 2017).

For assay [1], the target named is T1, Melatonin receptor type 1B (Homo sapiens, UniProt P49286).
T1 sequence (P49286 whole entry): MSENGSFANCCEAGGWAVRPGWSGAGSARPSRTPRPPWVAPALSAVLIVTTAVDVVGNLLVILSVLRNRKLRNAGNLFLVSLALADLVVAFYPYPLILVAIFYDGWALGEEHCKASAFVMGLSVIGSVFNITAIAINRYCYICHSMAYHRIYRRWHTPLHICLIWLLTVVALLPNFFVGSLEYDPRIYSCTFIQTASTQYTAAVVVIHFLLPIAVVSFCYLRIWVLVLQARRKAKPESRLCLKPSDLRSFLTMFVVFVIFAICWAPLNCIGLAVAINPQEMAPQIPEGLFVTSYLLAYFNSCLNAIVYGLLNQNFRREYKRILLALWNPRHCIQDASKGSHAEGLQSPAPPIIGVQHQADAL
Put plainly: Displacement of 2-[125I]iodomelatonin from human MT2 receptor expressed in HEK or CHO cell membranes after 120 mins.

In assay [2] the target is T2, Melatonin receptor type 1A (Homo sapiens, UniProt P48039). The assay can be described thus: Displacement of 2-[125I]iodomelatonin from human MT1 receptor expressed in HEK or CHO cell membranes after 120 mins.
Assay [3] addresses T1, Melatonin receptor type 1B. Put plainly: Intrinsic activity at human MT2 receptor expressed in CHO cell membranes after 1 hr by [35S]GTPgammaS binding assay. The assay is classed as functional. In general terms: GTPγS resists hydrolysis and so accumulates on activated G proteins.
For assay [4], the target named is T2, Melatonin receptor type 1A. The assay can be described thus: Intrinsic activity at human MT1 receptor expressed in CHO cell membranes after 1 hr by [35S]GTPgammaS binding assay. The assay is classed as functional.
For a further assay, the species on record is Homo sapiens. Put plainly: Selectivity ratio of Ki for human MT1 receptor to Ki for human MT2 receptor.

T2 sequence (P48039 whole entry): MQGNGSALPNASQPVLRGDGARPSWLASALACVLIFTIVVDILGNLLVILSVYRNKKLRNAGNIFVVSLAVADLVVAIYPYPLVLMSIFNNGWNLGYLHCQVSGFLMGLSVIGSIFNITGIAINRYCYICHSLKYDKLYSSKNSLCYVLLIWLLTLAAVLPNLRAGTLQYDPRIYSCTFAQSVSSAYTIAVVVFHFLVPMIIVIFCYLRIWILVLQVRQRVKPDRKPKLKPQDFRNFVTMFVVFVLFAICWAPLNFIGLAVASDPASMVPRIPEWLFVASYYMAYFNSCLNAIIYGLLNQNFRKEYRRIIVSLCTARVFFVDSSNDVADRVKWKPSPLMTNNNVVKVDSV

As to `CCNC(=O)NCCc1cccc2ncc(OC)cc12`, the figures for the inhibition constant Ki in assay [1] and in assay [2] were 73 nM and 575 nM, respectively.
Consider `COc1cnc2cccc(CCNC(=O)C3CC3)c2c1`, for which the Ki in assay [1] was 26 nM; in assay [2], 124 nM.
With `COc1ccc2cccc(CCNC(N)=O)c2n1`, the inhibition constant (Ki) came out at 0.2 nM in assay [1] and 2 nM in assay [2]. Moreover, the EC50 in assay [3] stood at 0.2 nM; in assay [4] it was 1620 nM.
On to `COc1ccc2cccc(CCC(=O)NCCF)c2n1`, for which the inhibitory constant (Ki) worked out at 0.3 nM in assay [1] and 19 nM in assay [2].
As to `COc1cnc2cccc(CCNC(N)=O)c2c1`, the values for the Ki in assay [1] and in assay [2] were 40 nM and 315 nM, respectively.
In the case of `COc1ccc2cccc(CCC(=O)NC3CC3)c2n1`, the Ki stood at 0.5 nM in assay [1] and 34 nM in assay [2]. Moreover, the Ratio Ki in the assay listed under Homo sapiens turned out to be 86.
Take `COc1cnc2cccc(CCNC(C)=O)c2c1`: the Ki in assay [1] is 4 nM; in assay [2], 60 nM.
As for `CNC(=O)NCCc1cccc2ccc(OC)nc12`, the Ki was found to be 0.09 nM in assay [1] and 0.6 nM in assay [2]. In addition, the EC50 in assay [3] amounted to 0.09 nM; in assay [4], 19 nM.
With `CCNC(=S)NCCc1cccc2ccc(OC)nc12`, the values for the Ki in assay [1] and in assay [2] were 0.4 nM and 4 nM, respectively. In addition, the half-maximal effective concentration (EC50) in assay [3] came to 1.1 nM; in assay [4], 31 nM.
Taken in the same sequence, the figures for `CCNC(=O)NCCc1cccc2ccc(OC)nc12` were 0.09 nM, 0.8 nM, 0.2 nM and 9.5 nM.
For `COc1cnc2cccc(CCNC(=O)CF)c2c1`, the Ki in assay [1] was found to be 6 nM; in assay [2], 29 nM.
Turning to `COc1ccc2cccc(CCNC(C)=O)c2n1`, the Ki stood at 0.2 nM in assay [1] and 0.3 nM in assay [2]. Further, the figures for the EC50 in assay [3] and in assay [4] were 0.2 nM and 0.8 nM, respectively.
In the case of `COC(=O)NCCc1cccc2ccc(OC)nc12`, the Ki amounted to 0.3 nM in assay [1] and 7 nM in assay [2]. In addition, the EC50 is 0.4 nM in assay [3] and greater than 1000 nM in assay [4].
`CCNC(=S)NCCc1cccc2ncc(OC)cc12`: the Ki in assay [1] turned out to be 550 nM; in assay [2] it was 690 nM.
For `COC(=O)NCCc1cccc2ncc(OC)cc12`, in that order: 430 nM and greater than 10000 nM.
With `CNC(=S)NCCc1cccc2ccc(OC)nc12`, the Ki in assay [1] stood at 0.1 nM; in assay [2], 2 nM. Besides, the EC50 worked out at 0.1 nM in assay [3] and 90 nM in assay [4].
For `CNC(=O)CCc1cccc2ccc(OC)nc12`, the Ki in assay [1] came out at 0.3 nM; in assay [2] it was 8 nM. Besides, the half-maximal effective concentration (EC50) stood at 0.7 nM in assay [3] and 65 nM in assay [4]. Further, the Ratio Ki in the assay filed under Homo sapiens was found to be 27.
Take `COc1ccc2ccc(CCNC(C)=O)cc2n1`: the Ki in assay [1] was found to be 22 nM; in assay [2] it was 58 nM.
Taken in the same sequence, the figures for `CNC(=S)NCCc1cccc2ncc(OC)cc12` were 250 nM and greater than 10000 nM.

A word on the Ki: it is the dissociation constant of the complex between target and ligand, obtained from inhibition or displacement. Lower therefore signals tighter binding. One may read the EC50 as the concentration at which the effect is half-maximal. Low readings indicate greater potency, high ones weaker potency.
